From ChEMBL document CHEMBL1145454, “Endiandrin A, a potent glucocorticoid receptor binder isolated from the Australian plant Endiandra anthropophagorum” (J Nat Prod, 2007)

Molecular target: T1, Glucocorticoid receptor (Homo sapiens, UniProt P04150)
T1 sequence (P04150 whole entry): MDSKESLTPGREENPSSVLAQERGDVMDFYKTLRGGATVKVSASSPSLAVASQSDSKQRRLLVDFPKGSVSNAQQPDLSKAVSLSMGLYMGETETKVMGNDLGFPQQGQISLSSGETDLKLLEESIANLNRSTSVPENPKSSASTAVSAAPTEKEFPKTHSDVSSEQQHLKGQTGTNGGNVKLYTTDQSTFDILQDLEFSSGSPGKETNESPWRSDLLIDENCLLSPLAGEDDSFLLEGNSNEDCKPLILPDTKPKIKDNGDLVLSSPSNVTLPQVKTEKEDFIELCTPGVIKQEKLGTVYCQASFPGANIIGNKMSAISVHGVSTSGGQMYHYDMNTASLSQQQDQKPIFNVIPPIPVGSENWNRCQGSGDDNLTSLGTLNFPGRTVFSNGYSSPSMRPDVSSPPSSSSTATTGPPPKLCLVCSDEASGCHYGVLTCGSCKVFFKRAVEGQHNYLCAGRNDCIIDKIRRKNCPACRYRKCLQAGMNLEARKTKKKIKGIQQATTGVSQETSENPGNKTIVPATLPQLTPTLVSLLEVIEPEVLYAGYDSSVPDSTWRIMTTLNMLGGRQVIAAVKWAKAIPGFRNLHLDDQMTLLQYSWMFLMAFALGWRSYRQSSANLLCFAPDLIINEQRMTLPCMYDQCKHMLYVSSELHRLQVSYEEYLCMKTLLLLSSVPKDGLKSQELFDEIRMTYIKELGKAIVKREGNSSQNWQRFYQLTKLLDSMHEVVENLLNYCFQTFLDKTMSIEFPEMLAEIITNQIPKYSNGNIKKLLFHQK
Assay: Binding affinity to glucocorticoid receptor by GR binding assay

| SMILES | IC50 |
| --- | --- |
| COc1cc([C@@H]2[C@@H](C)[C@H](C)[C@H]2c2ccc(OC(C)=O)c(OC)c2)ccc1OC(C)=O [DI-O-ACETYLENDIANDRIN A] | 34 µM |
| COc1cc(C[C@@H](C)[C@H](C)Cc2ccc(O)c(OC)c2)ccc1O [(-)-DIHYDROGUAIARETICACID] | 35 µM |
| COc1cc([C@H]2O[C@@H](c3ccc(O)c(OC)c3)[C@H](C)[C@@H]2C)ccc1O [NECTANDRIN B] | 27 µM |
| COc1ccc([C@@H]2[C@@H](C)[C@H](C)[C@H]2c2ccc(OC)c(OC)c2)cc1OC [DI-O-METHYLENDIANDRIN A] | 13 µM |
| COc1cc([C@@H]2[C@@H](C)[C@H](C)[C@H]2c2ccc(O)c(OC)c2)ccc1O [ENDIANDRIN A] | 0.9 µM |
